The values below come from US20080015194A1, “METHODS AND COMPOSITIONS OF TARGETED DRUG DEVELOPMENT” (priority 2006, published 2008).

One experiment concerns the target T1, EGFR (Rattus norvegicus, UniProt G3V6K6).
T1 construct: Receptor source was rat liver membranes; tissue NovaScreen BioSciences; host or cells: rat liver membranes
The experiment can be described thus: Inhibition of [125I]EGF binding to EGFR, radioligand filtration assay (NovaScreen). The settings on record: rat liver membranes. Here is the method: Identified compounds, representing various pharmacaphore models, were tested for ability to inhibit EGFR at 25 μM.
AD4-compounds were identified using pharmacophore models (see Example 4) and then were docked with the binding site of EGFR (SEQ ID NO: 1) that is recognized by defined CDRs of cetuximab. The inhibition of epidermal growth factor binding by AD4-compounds was then determined (NovaScreen BioSciences, Hanover, Md.). Inhibition of EGF binding was determined at 25 μM concentration.
Receptor source was rat liver membranes. The radioligand was [^125I]EGF ([…]) at a final ligand concentration of 0.36 nM. A non-specific determinant was used as EGF—[100 nM]. The reference compound and positive control was EGF. Reactions were carried out in 10 mM HEPES (pH 7.4) containing 0.1% BSA at 25 °C for 60 minutes. The reaction was terminated by rapid vacuum filtration onto glass fiber filters. Radioactivity trapped onto the filters was determined and compared to control values to ascertain any interactions of test compounds with the EGF binding site. The EGF inhibitor assays were modified from, for example, Mukku (1984) J. Biol. Chem. 259, 6543-6546; Duh et al. (1990) World J. Surgery 14, 410-418; Lokeshwar et al. (1989) J. Biol. Chem. 264(32), 19318-19326.

For experiment [1], the target named is EGF receptor of rat liver membranes (rat). Description: radioligand binding of [125I]EGF to rat liver membranes, filtration (NovaScreen).
[2] abbreviates: 25 μM compound, [125I]EGF 0.36 nM, read-out: inhibition of binding of EGF to EGFR.
Where [3] appears, read: inhibition of [125I]EGF binding at 25 μM, read-out: EGFR INHIBITION
Setting [4] is: 25 μM compound, [125I]EGF 0.36 nM.

Like-named read-outs stand apart in the source and are kept apart here.

T1 sequence (G3V6K6 25-1209): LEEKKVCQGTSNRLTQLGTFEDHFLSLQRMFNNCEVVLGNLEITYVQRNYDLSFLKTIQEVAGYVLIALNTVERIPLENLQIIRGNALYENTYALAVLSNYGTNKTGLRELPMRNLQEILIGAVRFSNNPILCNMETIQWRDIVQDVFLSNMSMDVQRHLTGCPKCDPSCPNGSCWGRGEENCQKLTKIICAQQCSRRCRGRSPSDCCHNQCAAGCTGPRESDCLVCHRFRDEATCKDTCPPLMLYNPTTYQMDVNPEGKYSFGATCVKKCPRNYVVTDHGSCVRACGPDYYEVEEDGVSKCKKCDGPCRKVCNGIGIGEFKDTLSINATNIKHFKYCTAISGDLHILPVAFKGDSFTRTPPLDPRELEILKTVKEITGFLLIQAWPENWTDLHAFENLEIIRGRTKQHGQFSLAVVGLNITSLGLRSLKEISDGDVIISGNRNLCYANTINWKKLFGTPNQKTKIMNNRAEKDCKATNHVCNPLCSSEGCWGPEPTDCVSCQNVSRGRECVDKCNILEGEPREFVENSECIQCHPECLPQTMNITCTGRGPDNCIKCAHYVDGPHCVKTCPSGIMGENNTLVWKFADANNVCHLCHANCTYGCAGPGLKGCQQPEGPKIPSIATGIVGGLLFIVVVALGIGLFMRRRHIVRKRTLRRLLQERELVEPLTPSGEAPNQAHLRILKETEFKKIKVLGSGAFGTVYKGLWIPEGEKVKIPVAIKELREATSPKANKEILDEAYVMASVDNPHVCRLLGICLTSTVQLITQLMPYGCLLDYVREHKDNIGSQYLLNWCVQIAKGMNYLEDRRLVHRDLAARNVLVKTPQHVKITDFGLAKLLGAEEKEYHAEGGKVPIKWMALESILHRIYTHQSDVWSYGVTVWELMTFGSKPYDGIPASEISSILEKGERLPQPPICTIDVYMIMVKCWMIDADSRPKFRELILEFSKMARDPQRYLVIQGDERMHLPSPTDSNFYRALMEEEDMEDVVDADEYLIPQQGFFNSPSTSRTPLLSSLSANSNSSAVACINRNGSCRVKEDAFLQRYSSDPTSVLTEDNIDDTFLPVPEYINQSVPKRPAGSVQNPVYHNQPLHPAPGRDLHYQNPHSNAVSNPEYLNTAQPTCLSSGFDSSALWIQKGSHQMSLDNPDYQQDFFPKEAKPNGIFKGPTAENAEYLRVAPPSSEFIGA

By inhibition is commonly meant the percentage by which the read-out fell short of the control. Turning to `CC1=C(C(=O)Nc2cccc(C)c2)C(c2ccc(O)cc2)NC(=O)N1` (stereo not shown) [AD4-1010, 4-(4-hydroxyphenyl)-6-methyl-N-(3-methylphenyl)-2-oxo-1,2,3,4-tetrahydro-5pyrimidinecarboxamide], the inhibition at 25 µM on EGFR (setting [2]) and on EGFR (setting [3]) was 39.4% in each case.

Regarding `CCOc1ccc(/C(C)=N/N=C2\NC(=O)C(CC(=O)O)S2)cc1` (stereo not shown) [AD4-1016], on EGFR (setting [3]), the inhibition at 25 µM is 37.8%. Same read-out and setting: under `O=C(N/N=C/c1cc(Cl)ccc1O)c1ccc(O)cc1` [AD4-1017] stands 35%; under `Oc1ccc(/C=N/N=C/c2ccc(O)cc2O)c(O)c1` [AD4-1018], 36.2%. For the molecule `O=C(O)Cn1nnc(-c2ccc(OCc3ccccc3)cc2)n1` [AD4-1020, {5-[4-(benzyloxy)phenyl]-2H-tetrazol-2-yl}acetic acid], on EGFR (setting [4]), the “inhibition of binding of EGF to EGFR” value came out at 48%. In addition, the inhibition at 25 µM at EGFR (setting [2]) and on EGFR (setting [3]) was 47.8% each time. For `CC(Oc1ccc(C(=O)NCCc2ccccc2)cc1)C(=O)O` (stereo not shown) [AD4-1021], the inhibition at 25 µM at EGFR (setting [2]) was found to be 43%; on EGFR (setting [3]), 43.4%. Taken in the same sequence, the figures for `Cc1cc(C)c(OCC(=O)Nc2cc(O)ccc2C(=O)O)cc1C` [AD4-1022] were 39% and 38.6%. With `O=C(O)C[C@H](NCc1cccnc1)C(=O)Nc1ccc(Cl)cc1` [AD4-1025, N^1-(4-chlorophenyl)-N^2-(3-pyridinylmethyl)-alpha-asparagine], the “inhibition of binding of EGF to EGFR” value at EGFR (setting [4]) is on record as 76%. The inhibition at 25 µM on EGFR (setting [2]) and on EGFR (setting [3]) was 75.7% in each case. As for `O=C(O)CCc1ccc(-c2ccc(Cl)cc2)n1CCC(=O)O` [AD4-1027], the inhibition at 25 µM at EGFR (setting [2]) is 39%; at EGFR (setting [3]), 38.6%.

For `COc1cccc(OCC(=O)Nc2ccccc2C(=O)O)c1` [AD4-1030], the inhibition at 25 µM turned out to be 38% on EGFR (setting [2]) and 37.7% at EGFR (setting [3]). For `CN(C1=NC(=O)C(CC(=O)O)S1)c1ccc(O)cc1` (stereo not shown) [AD4-1038, {2-[(4-Hydroxy-phenyl)-methyl-amino]-4-oxo-4,5-dihydro-thiazol-5-yl}-acetic acid] the same measures were 70.7% and 70.9%. For `O=C(CC(NCC1CCCO1)C(=O)O)Nc1cccc(Cl)c1` (stereo not shown) [AD4-1039] the same measures were 32% and 31.7%. As to `CCCC(NC(=O)CCc1c(C)c2ccc(O)cc2oc1=O)C(=O)O` (stereo not shown) [AD4-1047], the inhibition at 25 µM at EGFR (setting [3]) is 32.7%.

Regarding `COc1cc(/C=N/NC(=O)c2ccc(O)cc2O)ccc1O` [AD4-1057], at EGFR (setting [3]), the inhibition at 25 µM was determined as 30.1%. Same read-out and setting: under `Cn1c(=O)c2c(nc(SCCCO)n2Cc2ccccc2)n(C)c1=O` [AD4-1060] stands 30.2%. On the same count and under the same terms, the result for `NC(=O)C1CCN(C2CC(=O)N(c3ccc(C(=O)O)cc3)C2=O)CC1` (stereo not shown) [AD4-1108] reads 33.1%; that for `O=C(O)CCCN1C(=O)/C(=C/c2cccc(O)c2)SC1=S` [AD4-1109], 36.5%; that for `CCOc1cc(C=C2C(=O)NC(=O)NC2=O)ccc1CC(=O)O` [AD4-1121], 35%.

On to `O=C(NC(=S)Nc1ccc(O)c(C(=O)O)c1)c1ccccc1` [AD4-1123], for which the inhibition at 25 µM on EGFR (setting [3]) is 34.1%. Same read-out and setting: the result for `O=C1Nc2ccccc2C1(O)C/C(=N/O)c1ccc2c(c1)OCCO2` (stereo not shown) [AD4-1124] reads 33.1%. Regarding `Cc1ccc(OCCn2c(SCCO)nc3c(N)ncnc32)cc1` [AD4-1128], at EGFR (setting [3]), the inhibition at 25 µM amounted to 38%. In the case of `Cc1ccc(OCC(=O)Nc2ccc(O)cc2C(=O)O)c(C)c1` [AD4-1132, 2-{[(2,4-dimethylphenoxy)acetyl]amino}-5-hydroxybenzoic acid], the inhibition at 25 µM at EGFR (setting [2]) and on EGFR (setting [3]) was 59.6% each time. For the molecule `Oc1ccc(-c2csc(NCc3ccco3)n2)c(O)c1` [AD4-1133], the inhibition at 25 µM at EGFR (setting [3]) is 37.3%. Regarding `Cc1ccc(C(=O)Nc2ccc(C(=O)NCCCC(=O)O)cc2)o1` [AD4-1139], the inhibition at 25 µM on EGFR (setting [3]) was 39%. Still for that read-out and setting: under `O=C(CC1SC(Nc2ccc(O)cc2)=NC1=O)Nc1ccc(Br)cc1` (stereo not shown) [AD4-1140] stands 36.5%. Still for that read-out and setting: the result for `O=C(O)c1ccccc1SC1CC(=O)N(c2ccc(O)cc2)C1=O` (stereo not shown) [AD4-1141] reads 46.7%. In the case of `COC(=O)c1cc(NC(=O)CSc2nc(C)cc(=O)[nH]2)cc(C(=O)OC)c1` [AD4-1147], the inhibition at 25 µM on EGFR (setting [3]) amounted to 43.4%.

For `NC(=O)CCC(Nc1ncnc2ccccc12)C(=O)O` (stereo not shown) [AD4-1148], the inhibition at 25 µM at EGFR (setting [3]) was 43.2%. Still for that read-out and setting: the result for `O=C(O)CC(NCc1ccco1)C(=O)Nc1ccc2ccccc2c1` (stereo not shown) [AD4-1149] reads 33.6%; that for `O=C(O)COc1ccc(C(=O)NCc2ccccc2)cc1` [AD4-1150], 43.1%; that for `CN(Cc1ccccc1)S(=O)(=O)c1ccc(O)c(C(=O)O)c1` [AD4-1153], 34%. On the same count and under the same terms, the result for `Cc1cccc(NC(=O)C(CC(=O)O)NCc2ccccc2)c1` (stereo not shown) [AD4-1155] reads 30.1%; that for `O=C(O)Cn1nnc(-c2ccc(OCc3cccc(C(F)(F)F)c3)cc2)n1` [AD4-1164], 33.3%. The same measure, in the same setting: the result for `Cc1ccc(Cl)cc1NC(=O)CC(C(=O)O)N1CCNCC1` (stereo not shown) [AD4-1165] reads 47.2%.

Regarding `Cc1cccc(NC(=O)CC(NCCN2CCOCC2)C(=O)O)c1` (stereo not shown) [AD4-1166], at EGFR (setting [3]), the inhibition at 25 µM is 31.2%.

Consider `CCN(CC)c1ccc(NC(=O)C(CC(=O)O)NCc2ccccc2)cc1` (stereo not shown) [AD4-1167], for which the inhibition at 25 µM on EGFR (setting [3]) came to 30.6%. In the case of `O=C(O)COc1ccc(-c2nnn(CC(=O)O)n2)cc1` [AD4-1169], on EGFR (setting [3]), the inhibition at 25 µM came to 31.4%. Turning to `O=C(O)CC(NCc1ccccc1)C(=O)Nc1ccc(Cl)cc1` (stereo not shown) [AD4-1171], the inhibition at 25 µM at EGFR (setting [3]) came out at 47.2%. In the case of `O=C(O)Cn1nnc(-c2ccc(OCc3c(F)cccc3Cl)cc2)n1` [AD4-1175], at EGFR (setting [3]), the inhibition at 25 µM was 35.1%. In the case of `CCNc1nc(N)nc(Oc2ccc(OCc3ccccc3)nn2)n1` [AD4-1176], the inhibition at 25 µM at EGFR (setting [3]) is 34%. The same measure, in the same setting: the result for `O=C(CSc1ccccc1)Nc1ccc(O)c(C(=O)O)c1` [AD4-1178] reads 34.6%. As a reminder, the Kd is the constant that tells how readily two partners part at equilibrium. High values mean weaker binding, low ones tighter binding. With “[125I]EGF (epidermal growth factor radioligand)”, in experiment [1], the Bmax (receptor number) (fmol/mg tissue (wet weight)) was determined as 43 and the Kd was 1.04 nM.
